The assay relates to CEM cells HIV-1 protection, formazan growth assay. As to the kind of experiment: NCI AIDS Antiviral Assay. As to conditions: for IC50: measured here: growth of uninfected CEM cells. An outline of the steps:
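CEM (human) cells, HIV-1 infected vs uninfected, 5-point dosing, formazan growth read-out. Retest threshold 50% protection.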

SMILES strings stand for the structures. Active and inactive are the calls of the source.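 The calls were made as follows: active = compounds giving half or more protection of infected cells from virus-caused growth loss, again on retest; inactive = the rest.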

By EC50 is commonly meant the concentration that produces a half-maximal response. As a reminder, the IC50 is the concentration that gives 50% inhibition. Compound `CCC(C)C(NC(=O)c1ccccc1SC(=O)CCC[n+]1ccccc1)C(N)=O` (centres undefined) yielded an EC50 greater than 75.9 µM and an IC50 of 4.79 µM. The like results for `Cc1cccc(C)c1NC(=O)CN(CC(C)C)CC(O)COc1ccccc1` (centres undefined) were, in that order, greater than 200 µM and 27.5 µM. For `NC(=O)NCCCC(NC(=O)OCCCCCCn1ccc(=O)[nH]c1=O)C(=O)O` (centres undefined), the EC50 is greater than 200 µM and the IC50 was found to be 32.4 µM. In the same order, the values of `CC(C)c1cc(=O)oc2c3c(ccc12)OC(C)(C)[C@H](OC(=O)C12CCC(C)(C(=O)O1)C2(C)C)[C@@H]3OC(=O)C12CCC(C)(C(=O)O1)C2(C)C` (some centres undefined) are 0.324 µM and 33.9 µM.

On to `COc1ccc(N2C(=O)[C@@H](N=[N+]=[N-])[C@@H]2[C@H]2COC(C)(C)O2)cc1`, for which the EC50 was greater than 407 µM and the IC50 was greater than 407 µM.

In the case of `CCOC(=O)C1C2c3ccccc3C(c3ccccc32)C1C(=O)OCC` (centres undefined), the EC50 is greater than 200 µM and the IC50 is greater than 200 µM. As to `Cc1ncc[pH]1` (centres undefined), the EC50 is greater than 138 µM and the IC50 was greater than 138 µM. On to `CCOC(=O)N1CCN(C(=O)COc2cc3c(O)c4c(O)c(C)c5c(c24)C(=O)C(C)(O/C=C/C(OC)C(C)C(OC(C)=O)C(C)C(O)C(C)C(O)C(C)/C=C/C=C(\C)C(=O)N3)O5)CC1` (centres undefined), for which the EC50 was greater than 200 µM and the IC50 was determined as 13.5 µM. The like results for `CCOC(=O)CCC(NC(=O)c1ccc(Oc2nc3ccc(C(F)(F)F)cc3nc2-c2ccccc2)cc1)C(=O)OCC` (centres undefined) were, in that order, greater than 200 µM and 195 µM. Regarding `CCc1ccc(/C(C#N)=C/c2ccc(N(C)CCC#N)cc2)cc1`, the EC50 was greater than 200 µM and the IC50 came to 3.55 µM. For `CC(=O)OCC(OC(C)=O)C(OC(C)=O)C(OC(C)=O)C(OC(C)=O)C(OC(C)=O)c1nc2ccccc2[nH]1` (centres undefined), the EC50 was greater than 200 µM and the IC50 was greater than 200 µM. As to `CNC(=S)OCCC(C)CCCC(C)C` (centres undefined), the result was inactive.

For the compound `O=C(O)CC1OCC=C2CN3CCC45c6ccccc6NC4C1C2CC35` (centres undefined), the EC50 was greater than 85.1 µM, the outcome was inactive and the IC50 was greater than 85.1 µM. `COC(=O)c1ccc([As](=O)(O)O)cc1C(C)=O`: the EC50 is greater than 200 µM and the IC50 was 148 µM.

With `COC(=O)CNCc1cc(N(C)C)cc(CNCC(=O)OC)n1`, the EC50 was greater than 200 µM and the IC50 is greater than 200 µM.

Take `CCCCCCCCCCCC1=C(NCCN)C(=O)C=C(NCCN)C1=O`: the EC50 is greater than 2 µM and the IC50 is greater than 2 µM. Consider `CCOC(=O)c1cn2c(n1)sc1cccc(C)c12`, for which the EC50 was greater than 200 µM and the IC50 was greater than 200 µM. Take `CCOC1NC(/N=C/c2ccc(OC)cc2)=C(C#N)C1C#N` (centres undefined): the EC50 was greater than 200 µM and the IC50 was found to be 24.5 µM.

With `CCOC(=O)C1C=CC(C)C2CCCCC12N1CCCC1` (centres undefined), the result was inactive. Turning to `Nc1ncnc2c1ccn2COC(CO)CO`, the EC50 is greater than 200 µM and the IC50 was greater than 200 µM. Consider `CN1CCOC1(C)c1ccccc1O` (centres undefined), for which the EC50 was greater than 200 µM and the IC50 is greater than 200 µM. In the case of `O=C(/C=C/c1ccc(O)c(O)c1)O[C@H]1CCCC[C@@H]1OC(=O)/C=C/c1ccc(O)c(O)c1`, the EC50 is greater than 100 µM and the IC50 is 5.75 µM. On to `C=CCN(CCN(CC=C)S(=O)(=O)c1ccc(C)cc1)S(=O)(=O)c1ccc(C)cc1`, for which the EC50 is greater than 22.4 µM and the IC50 was greater than 22.4 µM. As to `Nc1cc(-c2ccc(Cl)cc2)nn1-c1nnc2c(n1)[nH]c1ccccc12`, the EC50 is greater than 200 µM and the IC50 was greater than 200 µM. As to `CC1C(O)O[C@@H]2O[C@@]3(C)CC[C@H]4[C@H](C)CC[C@@H]1[C@@]24O3` (some centres undefined), the EC50 is greater than 200 µM and the IC50 was greater than 200 µM. Take `COc1cc2c(cc1O)CC13CCC(=O)N1CCc1cc(OC)c(O)c-2c13` (centres undefined): the outcome was inactive. With `COc1cccc2c1c1ccc3c(c1n2C)C(=O)C=CC3=O`, the EC50 is greater than 17.8 µM and the IC50 was 7.08 µM.

For the compound `c1cc2nnc1SCCSCCCSCCS2`, the EC50 is greater than 200 µM and the IC50 came to 182 µM.

The values are drawn from PubChem BioAssay AID179 (DTP/NCI, 2004).
